# Source: ChEMBL document CHEMBL1629679, “Extended-spectrum cephalosporinases in Pseudomonas aeruginosa” (2009)
# Columns and labels:
# Pseudomonas aeruginosa [1] = experiment: Antimicrobial activity against AmpC overproducing Pseudomonas aeruginosa isolate Pae-beta-28 with PDC-7 variant by Etest; format: functional
# Pseudomonas aeruginosa [2] = experiment: Antimicrobial activity against Pseudomonas aeruginosa isolate Pae-beta-29 with PDC-8 variant by Etest; format: functional
# Pseudomonas aeruginosa [3] = experiment: Antimicrobial activity against AmpC overproducing Pseudomonas aeruginosa isolate Pae-beta-22 with PDC-4 variant by Etest; format: functional
# Pseudomonas aeruginosa [4] = experiment: Antimicrobial activity against AmpC overproducing Pseudomonas aeruginosa isolate Pae-beta-25 with PDC-6 variant by Etest; format: functional
# Pseudomonas aeruginosa [5] = experiment: Antimicrobial activity against AmpC overproducing Pseudomonas aeruginosa isolate Pae-beta-07 with PDC-2 variant by Etest; format: functional
# Pseudomonas aeruginosa [6] = experiment: Antimicrobial activity against AmpC overproducing Pseudomonas aeruginosa isolate Pae-beta-12 with PDC-2 variant by Etest; format: functional
# Pseudomonas aeruginosa [7] = experiment: Antimicrobial activity against AmpC overproducing Pseudomonas aeruginosa isolate Pae-beta-13 with PDC-2 variant by Etest; format: functional
# Pseudomonas aeruginosa [8] = experiment: Antimicrobial activity against AmpC overproducing Pseudomonas aeruginosa isolate Pae-beta-03 with PDC-2 variant by Etest; format: functional
# Pseudomonas aeruginosa [9] = experiment: Antimicrobial activity against AmpC overproducing Pseudomonas aeruginosa isolate Pae-beta-20 with PDC-4 variant by Etest; format: functional
# Pseudomonas aeruginosa [10] = experiment: Antimicrobial activity against Pseudomonas aeruginosa isolate Pae-beta-30 with PDC-8 variant by Etest; format: functional
# Pseudomonas aeruginosa [11] = experiment: Antimicrobial activity against AmpC overproducing Pseudomonas aeruginosa isolate Pae-beta-15 with PDC-2 variant by Etest; format: functional
# Pseudomonas aeruginosa [12] = experiment: microbe, parasite or virus in culture; conditions: 12B
# Pseudomonas aeruginosa [13] = experiment: Antimicrobial activity against AmpC overproducing Pseudomonas aeruginosa isolate Pae-beta-04 with PDC-2 variant by Etest; format: functional
# Pseudomonas aeruginosa [14] = experiment: Antimicrobial activity against AmpC overproducing Pseudomonas aeruginosa isolate Pae-beta-16 with PDC-3 variant by Etest; format: functional
# Pseudomonas aeruginosa [15] = experiment: Antimicrobial activity against AmpC overproducing Pseudomonas aeruginosa isolate Pae-beta-17 with PDC-3 variant by Etest; format: functional
# Pseudomonas aeruginosa [16] = experiment: Antimicrobial activity against Pseudomonas aeruginosa isolate Pae-beta-02 with PDC-1 variant by Etest; format: functional
# Pseudomonas aeruginosa [17] = experiment: Antimicrobial activity against AmpC overproducing Pseudomonas aeruginosa isolate Pae-beta-18 with PDC-3 variant by Etest; format: functional
# Pseudomonas aeruginosa [18] = experiment: Antimicrobial activity against Pseudomonas aeruginosa isolate Pae-beta-31 with PDC-9 variant by Etest; format: functional
# Pseudomonas aeruginosa [19] = experiment: Antimicrobial activity against AmpC overproducing Pseudomonas aeruginosa isolate Pae-beta-24 with PDC-5 variant by Etest; format: functional
# Pseudomonas aeruginosa [20] = experiment: microbe, parasite or virus in culture; conditions: 12B; remark: listed apart in the source
# Pseudomonas aeruginosa [21] = experiment: Antimicrobial activity against AmpC overproducing Pseudomonas aeruginosa isolate Pae-beta-11 with PDC-2 variant by Etest; format: functional
# Pseudomonas aeruginosa [22] = experiment: Antimicrobial activity against AmpC overproducing Pseudomonas aeruginosa isolate Pae-beta-08 with PDC-2 variant by Etest; format: functional
# Pseudomonas aeruginosa [23] = experiment: microbe, parasite or virus in culture; conditions: isolate Pae-beta-26
# Pseudomonas aeruginosa [24] = experiment: Antimicrobial activity against Pseudomonas aeruginosa isolate Pae-beta-19 with PDC-3 variant by Etest; format: functional
# Pseudomonas aeruginosa [25] = experiment: microbe, parasite or virus in culture; format: functional; conditions: KG2505a
# Pseudomonas aeruginosa [26] = experiment: Antimicrobial activity against Pseudomonas aeruginosa isolate Pae-beta-05 with PDC-2 variant by Etest; format: functional
# Pseudomonas aeruginosa [27] = experiment: microbe, parasite or virus in culture; conditions: PAO1
# Pseudomonas aeruginosa [28] = experiment: Antimicrobial activity against Pseudomonas aeruginosa isolate Pae-beta-01 with PDC-1 variant by Etest; format: functional
# Pseudomonas aeruginosa [29] = experiment: microbe, parasite or virus in culture; format: functional; conditions: KG2505a; remark: listed apart in the source
# Pseudomonas aeruginosa [30] = experiment: microbe, parasite or virus in culture; conditions: 12B; remark: listed apart in the source
# Pseudomonas aeruginosa [31] = experiment: Antimicrobial activity against AmpC overproducing Pseudomonas aeruginosa isolate Pae-beta-23 with PDC-5 variant by Etest; format: functional
# Pseudomonas aeruginosa [32] = experiment: Antimicrobial activity against AmpC overproducing Pseudomonas aeruginosa isolate Pae-beta-14 with PDC-2 variant by Etest; format: functional
# Pseudomonas aeruginosa [33] = experiment: Antimicrobial activity against AmpC overproducing Pseudomonas aeruginosa isolate Pae-beta-32 with PDC-10 variant by Etest; format: functional
# Pseudomonas aeruginosa [34] = experiment: Antimicrobial activity against AmpC overproducing Pseudomonas aeruginosa isolate Pae-beta-21 with PDC-4 variant by Etest; format: functional
# Pseudomonas aeruginosa [35] = experiment: microbe, parasite or virus in culture; format: functional; conditions: KG2505a; remark: listed apart in the source
# Pseudomonas aeruginosa [36] = experiment: microbe, parasite or virus in culture; format: functional; conditions: KG2505a; remark: listed apart in the source
# Pseudomonas aeruginosa [37] = experiment: Antimicrobial activity against AmpC overproducing Pseudomonas aeruginosa isolate Pae-beta-06 with PDC-2 variant by Etest; format: functional
# Pseudomonas aeruginosa [38] = experiment: Antimicrobial activity against AmpC overproducing Pseudomonas aeruginosa isolate Pae-beta-10 with PDC-2 variant by Etest; format: functional
# Pseudomonas aeruginosa [39] = experiment: microbe, parasite or virus in culture; format: functional; conditions: KG2505a; remark: listed apart in the source
# Pseudomonas aeruginosa [40] = experiment: microbe, parasite or virus in culture; conditions: 12B; remark: listed apart in the source
# Pseudomonas aeruginosa [41] = experiment: Antimicrobial activity against AmpC overproducing Pseudomonas aeruginosa isolate Pae-beta-27 with PDC-7 variant by Etest; format: functional
# Pseudomonas aeruginosa [42] = experiment: Antimicrobial activity against AmpC overproducing Pseudomonas aeruginosa isolate Pae-beta-09 with PDC-2 variant by Etest; format: functional
# Pseudomonas aeruginosa [43] = experiment: microbe, parasite or virus in culture; format: functional; conditions: 12B
smiles,measurement,setting,value
CC(C)(O/N=C(\C(=O)N[C@@H]1C(=O)N2C(C(=O)[O-])=C(C[n+]3ccccc3)CS[C@H]12)c1csc(N)n1)C(=O)O [CEFTAZIDIME],MIC,Pseudomonas aeruginosa [1],16 µg/mL
same,MIC,Pseudomonas aeruginosa [2],8 µg/mL
same,MIC,Pseudomonas aeruginosa [3],16 µg/mL
same,MIC,Pseudomonas aeruginosa [4],32 µg/mL
same,MIC,Pseudomonas aeruginosa [5],16 µg/mL
same,MIC,Pseudomonas aeruginosa [6],16 µg/mL
same,MIC,Pseudomonas aeruginosa [7],4 µg/mL
same,MIC,Pseudomonas aeruginosa [8],16 µg/mL
same,MIC,Pseudomonas aeruginosa [9],8 µg/mL
same,MIC,Pseudomonas aeruginosa [10],8 µg/mL
same,MIC,Pseudomonas aeruginosa [11],32 µg/mL
same,MIC,Pseudomonas aeruginosa [12],32 µg/mL
same,MIC,Pseudomonas aeruginosa [13],32 µg/mL
same,MIC,Pseudomonas aeruginosa [14],32 µg/mL
same,MIC,Pseudomonas aeruginosa [15],64 µg/mL
same,MIC,Pseudomonas aeruginosa [16],8 µg/mL
same,MIC,Pseudomonas aeruginosa [17],128 µg/mL
same,MIC,Pseudomonas aeruginosa [18],32 µg/mL
same,MIC,Pseudomonas aeruginosa [19],64 µg/mL
same,MIC,Pseudomonas aeruginosa [20],32 µg/mL
same,MIC,Pseudomonas aeruginosa [21],16 µg/mL
same,MIC,Pseudomonas aeruginosa [22],16 µg/mL
same,MIC,Pseudomonas aeruginosa [23],32 µg/mL
same,MIC,Pseudomonas aeruginosa [24],8 µg/mL
same,MIC,Pseudomonas aeruginosa [25],16 µg/mL
same,MIC,Pseudomonas aeruginosa [26],32 µg/mL
same,MIC,Pseudomonas aeruginosa [27],1 µg/mL
same,MIC,Pseudomonas aeruginosa [28],8 µg/mL
same,MIC,Pseudomonas aeruginosa [29],4 µg/mL
same,MIC,Pseudomonas aeruginosa [30],32 µg/mL
same,MIC,Pseudomonas aeruginosa [31],64 µg/mL
same,MIC,Pseudomonas aeruginosa [32],16 µg/mL
same,MIC,Pseudomonas aeruginosa [33],32 µg/mL
same,MIC,Pseudomonas aeruginosa [34],32 µg/mL
same,MIC,Pseudomonas aeruginosa [35],16 µg/mL
same,MIC,Pseudomonas aeruginosa [36],32 µg/mL
same,MIC,Pseudomonas aeruginosa [37],16 µg/mL
same,MIC,Pseudomonas aeruginosa [38],16 µg/mL
same,MIC,Pseudomonas aeruginosa [39],32 µg/mL
same,MIC,Pseudomonas aeruginosa [40],64 µg/mL
same,MIC,Pseudomonas aeruginosa [41],16 µg/mL
same,MIC,Pseudomonas aeruginosa [42],16 µg/mL
same,MIC,Pseudomonas aeruginosa [43],8 µg/mL
C[C@@H](O)[C@H]1C(=O)N2C(C(=O)O)=C(S[C@@H]3CN[C@H](C(=O)N(C)C)C3)[C@H](C)[C@H]12 [MEROPENEM],MIC,Pseudomonas aeruginosa [12],2 µg/mL
same,MIC,Pseudomonas aeruginosa [20],2 µg/mL
same,MIC,Pseudomonas aeruginosa [25],0.25 µg/mL
same,MIC,Pseudomonas aeruginosa [29],0.12 µg/mL
same,MIC,Pseudomonas aeruginosa [30],2 µg/mL
same,MIC,Pseudomonas aeruginosa [35],0.25 µg/mL
same,MIC,Pseudomonas aeruginosa [36],0.25 µg/mL
same,MIC,Pseudomonas aeruginosa [39],0.25 µg/mL
same,MIC,Pseudomonas aeruginosa [40],2 µg/mL
same,MIC,Pseudomonas aeruginosa [43],1 µg/mL
